These results are taken from PMC4598760 (Biomolecules, 2015).

The subject of experiment [1] is hemagglutinin (HA) on immobilized influenza virus A/Mem71 (H3N1). In kind it is binding, influenza A virus A/Memphis/1971.
Experiment [2] concerns influenza virus A/Mem71 (H3N1). As to conditions: for pKd: read-out: K*d (apparent).
For experiment [3], the system named is A/Udorn/307/1972 (A/Udorn72, H3N2).
Experiment [4] relates to A/Philippines/2/82/X-79 (A/Philips, H3N2).

pKd: −log10 of the molar value. Like-named read-outs stand apart in the source and are kept apart here. Some results are limits rather than exact numbers.

For `CC(=O)N[C@H]1[C@H]([C@H](O)[C@H](O)CO)O[C@@](O[C@H]2[C@@H](O)[C@@H](CO)O[C@@H](O[C@H]3[C@H](O)[C@@H](O)C(O)O[C@@H]3CO)[C@@H]2O)(C(=O)O)C[C@@H]1O` (stereo partly drawn) [α2-3 sialyllactose (OS-11), α2-3-sialyllactose], the pKd in experiment [1] is 1.58; in experiment [1] (monovalent, 288 K), 2.59; in experiment [1] (monovalent, 293 K), 2.19; in experiment [1] (monovalent, 296 K), 1.73. Further, the Koff in experiment [1] is 0.0736 s⁻¹.

For the molecule `CC(=O)N[C@H]1[C@H]([C@H](O)[C@H](O)CO)O[C@@](OC[C@H]2O[C@@H](O[C@H]3[C@H](O)[C@@H](O)C(O)O[C@@H]3CO)[C@H](O)[C@@H](O)[C@H]2O)(C(=O)O)C[C@@H]1O` (stereo partly drawn) [α2-6 sialyllactose (OS-21), α2-6-sialyllactose], the pKd is 1.32 in experiment [1]; 2.17 in experiment [1] (monovalent, 288 K); 1.95 in experiment [1] (monovalent, 293 K); 1.62 in experiment [1] (monovalent, 296 K). Further, the Koff in experiment [1] amounted to 0.128 s⁻¹.

For the molecule Kdnα2-6Galβ1-4Glcβ-Biotin [OS-19], the “virus binding to surface-bound glycan (in words)” value in experiment [2] is listed as “does not bind”.

On to Neu5Acα2-3Galβ1-4Glcβ-Biotin [OS-11], for which, in experiment [2], the “K*off (apparent)” value came out at 4.1e-06 s⁻¹, the “K*on (apparent)” value was 7200 M⁻¹ s⁻¹ and the pKd was 9.24.

Turning to Neu5Acα2-6GalNAcα-Biotin [OS-18], the “virus binding to surface-bound glycan (in words)” value in experiment [2] is listed as “binds”.

On to Neu5Acα2-6Galβ1-4Glcβ-Biotin [OS-21], for which, in experiment [2], the “K*off (apparent)” value was less than 3e-06 s⁻¹, the “K*on (apparent)” value was 7000 M⁻¹ s⁻¹ and the pKd was more than 9.37.

On to Neu5Gcα2-6Galβ1-4Glcβ-Biotin [OS-20], for which the “virus binding to surface-bound glycan (in words)” value is on record as “binds” in experiment [3] and “do not” in experiment [4].
